Data from ChEMBL document CHEMBL1201862, “PubChem BioAssay data set” (2004).
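Dose response: 5 concentrations. Exposure: 48 h. Format: 96-well plates. Endpoint: linear interpolation; highest concentration if not reached. The concentration for 50% growth inhibition is given as GI50.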 Activity calls are given as the source filed them. Cut-off read from the data, not from the text of the source: active = GI50 up to about 1.1 µM and inactive = higher.

Columns and labels:
Test in all cases: growth of human tumour cells (NCI), 48 h
[1] = test system: PC-3
[2] = test system: SF-295
[3] = test system: RPMI-8226
[4] = test system: A549
[5] = test system: HCT-116
[6] = test system: U-251
[7] = test system: HCC 2998
[8] = test system: SK-MEL-2
[9] = test system: SF-268
[10] = test system: SNB-75
[11] = test system: Malme-3M
[12] = test system: SK-OV-3
[13] = test system: NCI-H460
[14] = test system: SNB-19
[15] = test system: HCT-15
[16] = test system: NCI-H23
[17] = test system: CAKI-1
[18] = test system: NCI-H522
[19] = test system: MCF7
[20] = test system: COLO 205

Structure (SMILES) | GI50 [1] | GI50 [2] | GI50 [3] | GI50 [4] | GI50 [5] | GI50 [6] | GI50 [7] | GI50 [8] | GI50 [9] | GI50 [10] | GI50 [11] | GI50 [12] | GI50 [13] | GI50 [14] | GI50 [15] [µM] | GI50 [16] | GI50 [17] | GI50 [18] | GI50 [19] | GI50 [20]
Cc1nc(C(N)=S)sc1C(=O)C/C(=N/N)C(=O)Nc1ccc(Cl)cc1 | 72.9 µM (inactive) | 84.9 µM (inactive) | 38.2 µM (inactive) | > 100 µM (inactive) | > 100 µM (inactive) | 99.5 µM (inactive) | > 100 µM (inactive) | > 100 µM (inactive) | > 100 µM (inactive) | > 100 µM (inactive) | > 100 µM (inactive) | > 100 µM (inactive) | 55.5 µM (inactive) | 72.4 µM (inactive) | > 10 | 57.9 µM (inactive) | > 100 µM (inactive) | 31 µM (inactive) | 43.1 µM (inactive) | –
CC(=O)Nc1cc2ccc(=O)oc2cc1Cl | > 100 µM (inactive) | > 100 µM (inactive) | > 100 µM (inactive) | > 100 µM (inactive) | > 100 µM (inactive) | > 100 µM (inactive) | > 100 µM (inactive) | > 100 µM (inactive) | > 100 µM (inactive) | > 100 µM (inactive) | > 100 µM (inactive) | – | > 100 µM (inactive) | > 100 µM (inactive) | > 100 | > 100 µM (inactive) | > 100 µM (inactive) | > 100 µM (inactive) | > 100 µM (inactive) | > 100 µM (inactive)
O=c1oc(C(C(F)(F)F)C(F)(F)F)nc2ccccc12 | > 100 µM (inactive) | > 100 µM (inactive) | > 100 µM (inactive) | > 100 µM (inactive) | > 100 µM (inactive) | > 100 µM (inactive) | > 100 µM (inactive) | > 100 µM (inactive) | – | – | > 100 µM (inactive) | > 100 µM (inactive) | > 100 µM (inactive) | > 100 µM (inactive) | > 100 | > 100 µM (inactive) | > 100 µM (inactive) | > 100 µM (inactive) | > 100 µM (inactive) | > 100 µM (inactive)
COc1ccc2[nH]c3c([N+](=O)[O-])ccc(Cl)c3c(=O)c2c1 | 22.5 µM (inactive) | 38 µM (inactive) | 17.4 µM (inactive) | 62.4 µM (inactive) | 13.7 µM (inactive) | 25.4 µM (inactive) | 28.9 µM (inactive) | 22.1 µM (inactive) | 20.8 µM (inactive) | – | 19.6 µM (inactive) | > 63.1 µM (inactive) | 29 µM (inactive) | 51.4 µM (inactive) | 14.2 | 24.8 µM (inactive) | 23.2 µM (inactive) | 19 µM (inactive) | 25.1 µM (inactive) | 17 µM (inactive)
C[C@]12CC[C@H]3[C@@H](CCC4=CC(=O)CC[C@@]43C)[C@@H]1CC[C@@H]2OC(=O)c1cccc2c(=O)c3ccccc3[nH]c12 | 44.4 µM (inactive) | > 100 µM (inactive) | 24.3 µM (inactive) | > 100 µM (inactive) | – | 61.2 µM (inactive) | 25.2 µM (inactive) | > 100 µM (inactive) | 18.2 µM (inactive) | 13.9 µM (inactive) | 47.3 µM (inactive) | 58.5 µM (inactive) | 46.8 µM (inactive) | > 100 µM (inactive) | 37.6 | > 100 µM (inactive) | – | > 100 µM (inactive) | > 100 µM (inactive) | > 100 µM (inactive)
